“Also recorded” adds a separate entry of the source.
Experiments:
Format in all cases: cell-based
[1] = tested on: mouse embryonic skin fibroblasts (MSFs); experiment: Live imaging of nuclear area and chromatin condensation (H2b-eGFP) during cyclic stretch routines; settings: BAPTA 50 μM, KN-62 10 μM, cytochalasin D 2 μM
Protocol: (§1) Transgenic mice harboring a fluorescence tag at the H2b histone—B6.Cg-Tg (HIST1H2BB/EGFP) 1 Pa/J, Stock No: 006069—were obtained from Jackson Laboratory (Bar Harbor, Me.). All animal procedures were performed following Institutional Animal Care & Use Committee approval. Skin from embryonic mice was harvested 18.5 days post-conception. Skin was minced, washed with Hank's Balanced Salt Solution (HBSS), and incubated in 35 mm dishes in shallow medium (˜0.5 mL) to avoid floating of the tissue for 4 days, during which fibroblasts extruded from the tissue. After 4 days, remaining tissue was removed (picked out with a pipette), and extruded cells in the dish were detached using TrypLE (Gibco, Gaithersburg, Md.) and expanded in culture for another 2 days before being seeded into stretch chambers for experiments. The inner well of assembled stretch chambers was ozone activated for 30 s via corona arc discharge (BD-20; Electro-Technic Products) and coated with 50 μg/mL bovine plasma fibronectin (F1141; Sigma-Aldrich) in a total volume of 250 μL overnight at 37° C. Mouse embryonic skin fibroblasts (MSFs) were seeded into stretch chambers at a density of 80,000 cells/cm′ 1 day before experiments. MSFs were extruded and cultured in DMEM (ATCC, Manassas, Va.) containing 10% fetal bovine serum (Gibco), 1% penicillin-streptomycin (Gibco), and 25 mM HEPES (Gibco) at 37° C. and 5% CO2. To inhibit calcium signaling, MSFs were incubated with 50 μM BAPTA (A4926; Sigma-Aldrich) or 10 μM KN-62 (12142; Sigma-Aldrich) 1 h before cyclic strain experiments. To disrupt actin polymerization, MSFs were incubated with 2 μM cytochalasin D (C8273; Sigma-Aldrich) 30 min before experiments. Vehicle controls were incubated with 0.001% DMSO (276855; Sigma-Aldrich) 1 h before experiments. To test the use of chromatin dyes, cells were stained with Hoechst (NucBlue Live ReadyProbes; Life Technologies) 30 min before experiments. Stretch experiments were performed at 25° C. (room temperature) under humidified conditions.
The stretch device was mounted on an inverted epi-fluorescence microscope (Ti-Eclipse; Nikon) with a 60× water immersion objective (0.26 μm/pixel) and an EMCCD camera (iXonEM+; Andor Technology). The surrounding of the microscope was humidified to prevent the water on the objective from evaporating during the 1 h experiment. Oil immersion is also possible, but water immersion provided better image quality with the silicone membranes used.
Using MATLAB, a sinusoidal control signal (1 Hz) was sent to the Arduino controller, resulting in a cyclic stretch routine of the membrane (FIG. 1C), with peak strains set to 5% (−0.1 V), 10% (−0.9 V), and 20% (−2.25 V) as determined by the calibration curve. Cells were cyclically stretched for 30 min, followed by 30 min of rest, during which 2 μm z-stacks (0.5 μm steps) of nuclei were acquired. During the rest period, cells experienced no stretch but a constant magnetic field using the offset Arduino input voltage (0.8 V) that keeps the piston suspended at 0% stretch. For acquisition, the cyclic stretch routine was paused for 1 min to allow for a steady imaging plane and fine readjustments in z-position due to water evaporation. Unstretched control cells (0%) were seeded into stretch chambers but kept stationary on the microscope without any magnetic field applied. Unstretched magnetic control cells (MAG) were placed stationary inside the coil without the piston, and a magnetic field corresponding to a 20% sinusoidal stretch routine was applied.
A custom MATLAB code was used to track nuclear outlines via H2b-eGFP and to generate H2b intensity histograms during an image series, from which changes in nuclear area, H2b skewness, and H2b kurtosis were calculated.

[2] = tested on: mouse embryonic skin fibroblasts (MSFs); experiment: Perinuclear F-actin and γH2a.x staining after cyclic stretch routines; settings: cytochalasin D 2 μM
Protocol: as §1
MSFs were fixed in 4% ice-cold paraformaldehyde (PFA) for 10 min, permeabilized with 1% Triton-X100 in phosphate-buffered saline for 15, min and blocked with 10% NGS, 1% bovine serum albumin in 0.1% PBT (0.1% Tween-20 in phosphate-buffered saline) for 60 min. Primary incubation of Phospho-Histone H2A.X Ser139 (9718S; Cell Signaling Technology, Danvers, Mass.) was performed at 4° C. overnight in 0.1% PBT containing 1% bovine serum albumin at 1:400. Secondary incubation of goat anti-rabbit IgG-AF546 (Life Technologies) was performed in primary incubation buffer for 45 min at 22° C. at a dilution of 1:500. F-actin was counterstained with phalloidin-CF405 (Biotium, Fremont, Calif.) for 30 min at a dilution of 1:30. Staining was performed in containment wells. After staining, membranes were cut out of the containment well using a circular punch and mounted cell-side up onto #1.0 glass slides with ProLong Diamond Antifade Mountant (Life Technologies). Image stacks (5 μm, 1 μm step) of multiple nuclei in a 318×318 μm area were acquired on a Nikon MR confocal microscope using a 40× oil immersion objective (0.31 μm/pixel). A custom MATLAB code was used to track nuclear outlines via H2b-eGFP and to quantify perinuclear F-actin intensities and γH2a.x foci in projected image stacks. Only the projected F-actin within the nuclear outline (apical perinuclear F-actin) was counted in this analysis. To account for variations in staining and imaging (the same imaging settings were used), fluorescence channels were histogram normalized. Perinuclear F-actin intensities were calculated as the sum of normalized phalloidin intensities within a nuclear border. DNA damage foci were determined by detecting 2D peaks in the normalized γH2a.x channel using the MATLAB script FastPeakFind (v. 1.7).

[3] = tested on: mouse embryonic skin fibroblasts (MSFs); experiment: Nuclear strain transfer from membrane to nucleus after cyclic stretch; settings: after 30 min of 20% cyclic strain; relaxed vs stretched images; cytochalasin D 2 μM vs NT cells
Protocol: Transgenic mice harboring a fluorescence tag at the H2b histone—B6.Cg-Tg (HIST1H2BB/EGFP) 1 Pa/J, Stock No: 006069—were obtained from Jackson Laboratory (Bar Harbor, Me.). All animal procedures were performed following Institutional Animal Care & Use Committee approval. Skin from embryonic mice was harvested 18.5 days post-conception. Skin was minced, washed with Hank's Balanced Salt Solution (HBSS), and incubated in 35 mm dishes in shallow medium (˜0.5 mL) to avoid floating of the tissue for 4 days, during which fibroblasts extruded from the tissue. After 4 days, remaining tissue was removed (picked out with a pipette), and extruded cells in the dish were detached using TrypLE (Gibco, Gaithersburg, Md.) and expanded in culture for another 2 days before being seeded into stretch chambers for experiments. […] To test the use of chromatin dyes, cells were stained with Hoechst (NucBlue Live ReadyProbes; Life Technologies) 30 min before experiments. […]
To analyze the amount of strain transferred from the membrane to the nucleus after cyclic stretch routines, image stacks of nuclei were acquired under relaxed or stretched conditions, and bulk nuclear strain was calculated from the change in nuclear area using the same MATLAB script as above. Note that nuclear strain transfer could not be accurately analyzed before stretch routines because of the fast response in area decline.

[4] = static magnetic-field-only routine (MAG), no stretch
[5] = after 30 min 5% cyclic stretch, vs NT or VH control cells, BAPTA 50 μM, KN-62 10 μM
[6] = after 30 min 5% cyclic stretch, vs NT or VH control cells, BAPTA 50 μM, KN-62 10 μM, listed as CD
[7] = after 30 min 20% cyclic stretch, vs NT or VH control cells, BAPTA 50 μM, KN-62 10 μM
[8] = after 30 min 20% cyclic stretch, vs NT or VH control cells, BAPTA 50 μM, KN-62 10 μM, listed as CD

C=C1[C@@H](C)[C@H]2[C@H](Cc3ccccc3)NC(=O)[C@]23[C@H](OC(C)=O)/C=C/[C@@](C)(O)C(=O)[C@@H](C)C/C=C/[C@H]3[C@@H]1O [cyto D, cytochalasin D]
change in nuclear area ([1]; 30 min 5% cyclic strain, 1 Hz, vs NT/VH cells (area increases)): abrogated the increase in nuclear area | change in nuclear area ([1]; 30 min 5% cyclic strain, 1 Hz, vs NT/VH cells (area increases), listed as CD): inhibited changes in nuclear area | chromatin condensation (H2b histogram kurtosis and skewness) ([1]; 30 min 5% cyclic strain, 1 Hz, vs NT/VH cells (condensation decreases)): distinctly increased chromatin condensation | chromatin condensation (H2b histogram kurtosis and skewness) ([1]; 30 min 5% cyclic strain, 1 Hz, vs NT/VH cells (condensation decreases), listed as CD): inhibited changes in nuclear area and chromatin condensation | change in nuclear area ([1]; 30 min 20% cyclic strain, 1 Hz, vs NT/VH cells (area decreases)): inhibited nuclear shrinkage | change in nuclear area ([1]; 30 min 20% cyclic strain, 1 Hz, vs NT/VH cells (area decreases), listed as CD): inhibited changes in nuclear area | chromatin condensation (H2b histogram kurtosis and skewness) ([1]; 30 min 20% cyclic strain, 1 Hz, vs NT/VH cells (condensation increases)): inhibited nuclear shrinkage and chromatin condensation | chromatin condensation (H2b histogram kurtosis and skewness) ([1]; 30 min 20% cyclic strain, 1 Hz, vs NT/VH cells (condensation increases), listed as CD): inhibited changes in nuclear area and chromatin condensation | change in nuclear area [1, 4]: showed no effect | chromatin condensation (H2b histogram kurtosis and skewness) [1, 4]: showed no effect | number of γH2a.x foci per nucleus (DNA damage, double-strand breaks) [2, 5]: distinctly increased | perinuclear F-actin intensities [2, 5]: increased | number of γH2a.x foci per nucleus (DNA damage, double-strand breaks) [2, 6]: increased number of foci | perinuclear F-actin intensities [2, 6]: altered F-actin intensities | number of γH2a.x foci per nucleus (DNA damage, double-strand breaks) [2, 7]: distinctly increased | perinuclear F-actin intensities [2, 7]: abrogated | number of γH2a.x foci per nucleus (DNA damage, double-strand breaks) [2, 8]: increased number of foci | perinuclear F-actin intensities [2, 8]: altered F-actin intensities | perinuclear F-actin intensities ([2]; after magnetic-field-only routine (MAG)): showed no effect | number of γH2a.x foci per nucleus (DNA damage, double-strand breaks) ([2]; static magnetic-field-only controls (MAG), BAPTA 50 μM, KN-62 10 μM): had no effect | strain transferred from membrane to nuclei (nuclear strain) [3]: higher nuclear strains; also recorded: increase

From patent publication US11360010B1, “Methods and device for controlled cell stretch and imaging” (The Regents of the University of Colorado, a body, priority 2019, dated 2022)
